In ChEMBL document CHEMBL1201862, “PubChem BioAssay data set” (2004):
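Cultured in 96-well plates, cells were exposed to test compound for 48 hours across five concentrations. At the GI50, growth is halved.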 Calls of active or inactive are those of the source. Cut-off read from the data, not from the text of the source: active = GI50 up to about 1.1 µM and inactive = higher.

How the values were obtained:
Test in all cases: NCI-60 cell line screen, 48 h
[1] = system: SF-268
[2] = system: HCC 2998
[3] = system: SW-620
[4] = system: RPMI-8226
[5] = system: M19-MEL
[6] = system: NCI-H226
[7] = system: SK-MEL-5
[8] = system: RXF 631
[9] = system: LOX IMVI
[10] = system: KM12
[11] = system: XF498
[12] = system: HOP-18
[13] = system: 786-0
[14] = system: CAKI-1
[15] = system: NCI-H460
[16] = system: NCI-H23
[17] = system: A549
[18] = system: HCT-15
[19] = system: OVCAR-5
[20] = system: UO-31
[21] = system: LXFL 529
[22] = system: M14
[23] = system: OVCAR-8
[24] = system: NCI-H522
[25] = system: IGROV-1
[26] = system: SNB-75
[27] = system: SR
[28] = system: CCRF-CEM
[29] = system: OVCAR-3
[30] = system: COLO 205
[31] = system: UACC-257
[32] = system: UACC-62
[33] = system: EKVX
[34] = system: SF-295
[35] = system: SK-OV-3
[36] = system: SK-MEL-28
[37] = system: HOP-62
[38] = system: HT-29
[39] = system: KM-20L2
[40] = system: OVCAR-4
[41] = system: SNB-19
[42] = system: ACHN
[43] = system: SN12C
[44] = system: U-251
[45] = system: K562
[46] = system: SK-MEL-2
[47] = system: MOLT-4
[48] = system: DMS-273
[49] = system: DLD-1
[50] = system: SF-539
[51] = system: Malme-3M
[52] = system: Hs-578T
[53] = system: T47D
[54] = system: HCT-116
[55] = system: RXF 393
[56] = system: PC-3
[57] = system: MDA-MB-435
[58] = system: BT-549
[59] = system: MDA-N
[60] = system: TK-10
[61] = system: MCF7
[62] = system: SNB-78
[63] = system: DU-145
[64] = system: HOP-92
[65] = system: MDA-MB-231
[66] = system: A498
[67] = system: DMS-114
[68] = system: HL-60

CO/S(=N/S(=O)(=O)c1ccccc1)c1ccccc1[N+](=O)[O-] (configuration not stated)
GI50 [1]: > 100 µM (inactive) | GI50 [2]: > 100 µM (inactive) | GI50 [3]: > 100 µM (inactive) | GI50 [4]: > 100 µM (inactive) | GI50 [5]: > 100 µM (inactive) | GI50 [6]: > 100 µM (inactive) | GI50 [7]: > 100 µM (inactive) | GI50 [8]: > 100 µM (inactive) | GI50 [9]: > 100 µM (inactive) | GI50 [10]: > 100 µM (inactive) | GI50 [11]: > 100 µM (inactive) | GI50 [12]: > 100 µM (inactive) | GI50 [13]: > 100 µM (inactive) | GI50 [14]: > 100 µM (inactive) | GI50 [15]: > 100 µM (inactive) | GI50 [16]: > 100 µM (inactive) | GI50 [17]: > 100 µM (inactive) | GI50 [18]: > 100 µM | GI50 [19]: > 100 µM (inactive) | GI50 [20]: > 100 µM (inactive) | GI50 [21]: > 100 µM (inactive) | GI50 [22]: > 100 µM (inactive) | GI50 [23]: > 100 µM (inactive) | GI50 [24]: > 100 µM (inactive) | GI50 [25]: > 100 µM (inactive) | GI50 [26]: > 100 µM (inactive) | GI50 [27]: > 100 µM (inactive) | GI50 [28]: > 100 µM (inactive) | GI50 [29]: > 100 µM (inactive) | GI50 [30]: > 100 µM (inactive) | GI50 [31]: > 100 µM (inactive) | GI50 [32]: > 100 µM (inactive) | GI50 [33]: > 100 µM (inactive) | GI50 [34]: > 100 µM (inactive) | GI50 [35]: > 100 µM (inactive) | GI50 [36]: > 100 µM (inactive) | GI50 [37]: > 100 µM (inactive) | GI50 [38]: > 100 µM (inactive) | GI50 [39]: > 100 µM (inactive) | GI50 [40]: > 100 µM (inactive) | GI50 [41]: > 100 µM (inactive) | GI50 [42]: > 100 µM (inactive) | GI50 [43]: > 100 µM (inactive) | GI50 [44]: > 100 µM (inactive) | GI50 [45]: > 100 µM (inactive) | GI50 [46]: > 100 µM (inactive) | GI50 [47]: > 100 µM (inactive) | GI50 [48]: > 100 µM (inactive) | GI50 [49]: > 100 µM (inactive) | GI50 [50]: > 100 µM (inactive) | GI50 [51]: > 100 µM (inactive)

C=C1C(=O)OC2/C=C(\C)C3OC3/C=C(/C(=O)OC)C(OC(C)=O)C(OC(=O)C(C)(O)C(C)OC(C)=O)C12 (configuration not stated)
GI50 [52]: 6.21 µM (inactive) | GI50 [1]: 5.55 µM (inactive) | GI50 [53]: 6.3 µM (inactive) | GI50 [2]: 3.83 µM (inactive) | GI50 [54]: 1.27 µM (inactive) | GI50 [3]: 0.796 µM (active) | GI50 [55]: 0.501 µM (active) | GI50 [4]: 0.92 µM (active) | GI50 [5]: 2.39 µM (inactive) | GI50 [56]: 3.96 µM (inactive) | GI50 [6]: 6.89 µM (inactive) | GI50 [57]: 2.03 µM (inactive) | GI50 [7]: 2.5 µM (inactive) | GI50 [8]: 2.55 µM (inactive) | GI50 [9]: 1.53 µM (inactive) | GI50 [58]: 1.04 µM (active) | GI50 [10]: 2.49 µM (inactive) | GI50 [59]: 2.69 µM (inactive) | GI50 [11]: 1.96 µM (inactive) | GI50 [13]: 2.22 µM (inactive) | GI50 [14]: 4.36 µM (inactive) | GI50 [15]: 3.45 µM (inactive) | GI50 [16]: 2.5 µM (inactive) | GI50 [17]: 14.6 µM (inactive) | GI50 [18]: 6.24 µM | GI50 [19]: 5.58 µM (inactive) | GI50 [20]: 6.52 µM (inactive) | GI50 [21]: 1.1 µM (active) | GI50 [22]: 2.39 µM (inactive) | GI50 [60]: 1.83 µM (inactive) | GI50 [23]: 1.4 µM (inactive) | GI50 [24]: 0.284 µM (active) | GI50 [25]: 1.98 µM (inactive) | GI50 [26]: 2.81 µM (inactive) | GI50 [27]: 0.652 µM (active) | GI50 [28]: 0.305 µM (active) | GI50 [29]: 3.13 µM (inactive) | GI50 [30]: 1.29 µM (inactive) | GI50 [61]: 0.736 µM (active) | GI50 [31]: 0.679 µM (active) | GI50 [32]: 1.7 µM (inactive) | GI50 [33]: 10.5 µM (inactive) | GI50 [62]: 2.53 µM (inactive) | GI50 [63]: > 10 µM (inactive) | GI50 [34]: 9.2 µM (inactive) | GI50 [35]: 18.7 µM (inactive) | GI50 [36]: 2.23 µM (inactive) | GI50 [64]: 1.9 µM (inactive) | GI50 [37]: 20.8 µM (inactive) | GI50 [38]: 1.29 µM (inactive) | GI50 [65]: 8.93 µM (inactive) | GI50 [40]: 3.5 µM (inactive) | GI50 [66]: 3.24 µM (inactive) | GI50 [41]: 14.5 µM (inactive) | GI50 [42]: 3.78 µM (inactive) | GI50 [43]: 2.67 µM (inactive) | GI50 [44]: 3.03 µM (inactive) | GI50 [45]: 0.741 µM (active) | GI50 [67]: 1.15 µM (inactive) | GI50 [46]: 4.59 µM (inactive) | GI50 [68]: 0.308 µM (active) | GI50 [47]: 0.647 µM (active) | GI50 [48]: 1.57 µM (inactive) | GI50 [49]: 2.39 µM (inactive) | GI50 [50]: 2.11 µM (inactive) | GI50 [51]: 2.14 µM (inactive)
